Results on one molecule are retold here after ChEMBL document CHEMBL2150891, “Compounds and Their Use as BACE Inhibitors: Patent Highlight” (ACS Med Chem Lett, 2012).

For assay [1], the target named is T1, Beta-secretase 1 (Homo sapiens, UniProt P56817). The assay is described as follows: Inhibition of BACE by TR-FRET assay.
Assay [2] addresses T1, Beta-secretase 1. The assay is described as follows: Inhibition of BACE by secreted APPbeta release assay.

T1 sequence (P56817 whole entry): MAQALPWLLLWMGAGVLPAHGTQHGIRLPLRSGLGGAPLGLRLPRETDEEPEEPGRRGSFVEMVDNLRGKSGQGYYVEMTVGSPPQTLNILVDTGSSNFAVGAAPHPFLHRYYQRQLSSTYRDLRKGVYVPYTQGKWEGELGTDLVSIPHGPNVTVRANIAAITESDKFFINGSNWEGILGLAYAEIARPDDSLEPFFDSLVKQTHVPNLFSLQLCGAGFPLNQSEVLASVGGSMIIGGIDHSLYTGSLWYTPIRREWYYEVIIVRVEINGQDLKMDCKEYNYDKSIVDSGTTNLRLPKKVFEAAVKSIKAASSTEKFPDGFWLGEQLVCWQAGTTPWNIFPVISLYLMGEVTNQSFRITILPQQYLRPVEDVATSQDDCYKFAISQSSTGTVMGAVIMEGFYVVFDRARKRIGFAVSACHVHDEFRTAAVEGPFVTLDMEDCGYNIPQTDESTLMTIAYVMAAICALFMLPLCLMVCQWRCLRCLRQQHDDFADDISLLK

Turning to `CC#Cc1cncc(-c2ccc3c(c2)C2(N=C(C)C(N)=N2)C2(CCC(OC)CC2)O3)c1` (configuration not stated), the 50% inhibitory concentration (IC50) – broadly, the concentration needed to halve the response being measured – was 1.4 nM on Beta-secretase 1 [1] and 2.2 nM on Beta-secretase 1 [2].
